# Test: Pharmacokinetics after single intravenous bolus of E2 and P in sheep
# Assay type: in vivo
# Conditions: Dorset crossbred, plasma, E2 160 μg, P 10 mg, mean; for AUC(0-inf): n = 2; for clearance: n = 2, read-out: CL, total body clearance (converted); for half-life: n = 2, read-out: T1/2, terminal half-life (converted); for Vd: n = 2, read-out: Vz, volume of distribution based on terminal elimination phase
# Source text: Standard noncompartmental PK analysis methods were used.
AUC(0-inf),clearance,half-life,Vd,SMILES
1.79 ng·h/mL,1490 mL/min,133 min,287 L,"C[C@]12CC[C@@H]3c4ccc(O)cc4CC[C@H]3[C@@H]1CC[C@@H]2O [E2, 17β-estradiol]"
20 ng·h/mL,8330 mL/min,165 min,1980 L,"CC(=O)[C@H]1CC[C@H]2[C@@H]3CCC4=CC(=O)CC[C@]4(C)[C@H]3CC[C@]12C [P, progesterone]"

# From patent US20240115416A1, “SEGMENTED EVA INTRAVAGINAL RINGS” (priority 2019, published 2024)
